The results in this text go back to patent US20150079000A1, “Labelled Quinoxaline Derivatives as Multimodal Radiopharmaceuticals and Their Precursors” (INSTITUT NATIONAL DE LA SANTET DE LA RECHERCHE MEDICALE, priority 2012, published 2015).

The test system of one data set is B16BL6 tumour. In words: PET imaging in B16BL6 tumour bearing mice. The data set is classed as in vivo, C57BL/6J mice. As to conditions: 1 h p.i., day-15. On the procedure:
All our studies were performed in accordance with French and European Economic Community (86-609, EEC) guidelines for care of laboratory animals. Protocols were performed under the authorization of the French Direction des Services Veterinaires (authorization no. CE 86-12). Male C57BL/6J mice were originating from Charles River laboratories and maintained at 21° C. with a 12 h/12 h light/dark cycle, fed with a breeding diet (diet A04 from Safe, Villemoisson, France) and received water ad libitum. For transplantation B16BL6 cell suspension were grown in a monolayer culture to confluence, after which cells were trypsinized, washed with phosphate buffer saline (PBS) and they were resuspended in PBS. Mice were anesthetized by isoflurane (4% for induction and 2±0.5% for maintaining in oxygen flux) inhalation. The primary tumour model was induced by subcutaneous injection of 3×10^5 melanoma B16B16 cells in 0.1 mL on the right shoulder of mice.
Whole-body PET scans were acquired 1 h after bolus injection of […] of the appropriate [^18F]-compound in a volume of 0.15 ml via the tail vein. Mice were anesthetized by intraperitoneal (i.p.) administration (200 μL/mouse) of a ketamine-xylazine mixture in saline: ketamine (100 mg/kg, Imalgene™, Rhône Mérieux, Lyon, France) and xylazine (10 mg/kg, Rompun™, Bayer, France) before radiotracer injection and imaged by using a small-animal PET device, eXplore Vista microPET instrument (GE Healthcare). PET images were acquired by using static mode during 20 min. The acquired data were reconstructed using the 2-Dimensional ordered-subsets expectation maximization (OSEM) algorithm and corrected from decay, scatter and randoms. No corrections were applied for partial volume or attenuation.
Regional tracer uptake was quantified by standard region-of-interest (ROI) analysis with eXplore Vista software package. A manual 2D-ROI was drawn around the tumour in each slice where tumour was visible, and on several subsequent coronal planes containing muscle tissue at the forelimb. Results are expressed by percentage of injected dose per gram of tissue (% ID/g).
PET imaging was performed 1 h post injection of tracers in B16BL6 tumour bearing mice at day-15 after tumours cell inoculation.

Data set [1] is described as follows: radiochemical stability of the radiotracer after preparation. It counts as physicochemical.
A short description of data set [2]: octanol/water (PBS buffer) partition coefficient (log D). The data set is classed as physicochemical.
A further data set concerns melanoma B16F0 tumours. The data set can be described thus: In vivo scintigraphic imaging of [125I]-labelled compounds. Further details: species or system C57BL/6J mice. The settings on record: planar scintigraphy. From the text: C57BL/6J male mice (6-8 weeks old) were obtained from Charles River (l'Arbresle, France) and the B 16F0 syngenic melanoma from ATCC (no. CRL-6322). Primary melanoma model was induced by subcutaneous injection of B 16F0 murine melanoma cells in C57BL/6J mice. B 16F0 melanoma cell cultures were maintained as monolayers in Dulbecco's Modified Eagle's Medium (DMEM)/Glutamax (Invitrogen, Cergy Pontoise, France) supplemented with 10% fetal calf serum (Sigma, Saint Quentin Fallavier, France), 1% vitamins (Invitrogen, Cergy-Pontoise, France), 1 mM sodium pyruvate (Invitrogen), 1% non essential amino acids (Invitrogen), and 4 μg/mL of gentamycin base (Invitrogen). Cells were grown at 37° C. in a humidified incubator containing 5% CO2. For transplantation, cells in exponential growth phase were trypsinized, washed with phosphate buffer saline (PBS), and resuspended in PBS. C57BL/6J mice anesthetized by isoflurane (2%) inhalation were inoculated with 3×10^5 melanoma B16F0 cells in 0.1 mL of PBS by subcutaneous injection on the right flank.
In vivo scintigraphic imaging protocol was submitted and approved by the french regional ethical animal use committee (CEMEA, Auvergne, authorization no. CE18-09, 2010). Scintigraphic imaging of radioiodinated compounds in mice was performed using a gamma camera dedicated to small animal imaging (γIMAGER, Biospace Mesures, Paris, France). This camera consists of a R 3292 Hamamatsu position-sensitive photomultiplier having a continuous 4 mm thick×120 mm diameter CsI (Na) crystal leading to a 10 cm field of view. For ^125I imaging, the camera was equipped with parallel-hole collimator 1.8/0.2/20 (hole diameter/septum thickness/height in mm). All the acquisitions were performed with a 15% window centered on the 35 keV peak of ^125I.
On day 14 after tumour implantation, each [^125I]-labelled compound was administered intravenously via the tail vein with 3.7 MBq/mouse (range 3-8 animals/compounds). The injected activity to each mouse was also determined from scintigraphic imaging of the syringe before and after the injection of the radiotracer. At different times after administration (1 h, 3 h, 6 h, 24 h, 72 h, 5 d, 7 d, 10 d and 14 d), mice were anaesthetized by i.p. administration (200 μL/mouse) of a ketamine-xylazine mixture in saline: ketamine (100 mg/kg, Imalgene, Rhône Merieux, Lyon, France) and xylazine (10 mg/kg, Rompun, Bayer, France). A 10 min duration image was acquired on anesthetized mice placed in prone position over the collimator of the camera. Reproducibility in animal positioning for the serial images was achieved using a graduated reference grid.
Quantitative analysis of scintigraphic scans was performed using the GAMMAVISION+ software (Biospace Mesures, Paris, France). Regions of interest (ROIs) were manually drawn around the tumour, the whole body area, the bladder, the eyes, the submaxillary and thyroid glands and the controlateral muscle which was chosen as background. For each ROI, total activity, min and max pixel values, ROI size (in mm^2), average activity per mm^2 and standard deviation were obtained. These values were normalized to the injected activity. For the tumour, the activity was also normalized to the tumour weight as previously described (Miot-Noirault, Cancer biotherapy & radiopharmaceuticals, 24 (2009) 629-636) and expressed as percentage of injected dose per gram of tumour (% ID/g).

Turning to `CCN(CCNC(=O)c1cnc2cc(I)ccc2n1)Cc1cn(CC[18F])nn1` [[^18F](7)], in the data set with B16BL6 tumour, the muscles activity is 0.84 % ID/g, the tumour uptake stood at 14.55 % ID/g and the tumour/muscle ratio was 17.41. The “radiochemically stable at room temperature after preparation” value in data set [1] is listed as “at least 6 h”. Also, the “octanol/water (PBS buffer) partition coefficient (log D)” value in data set [2] was 2.22±0.03.
As to `CCN(CCNC(=O)c1cnc2cc([125I])ccc2n1)CCOCCOCCOCCF.Cl.Cl` [[^125I]3], the “% ID/g (tumour)” value with melanoma B16F0 tumours (1 h after i.v. injection) was determined as 11.7 ± 2.2 % ID/g; in the data set with melanoma B16F0 tumours (3 h after i.v. injection), 12.1 ± 1.7 % ID/g; in the data set with melanoma B16F0 tumours (6 h after i.v. injection), 12.1 ± 1.9 % ID/g; with melanoma B16F0 tumours (24 h after i.v. injection), 12.4 ± 2.3 % ID/g; with melanoma B16F0 tumours (72 h after i.v. injection), 8.6 ± 3.6 % ID/g; in the data set on melanoma B16F0 tumours (5 d after i.v. injection), 5.8 ± 2.4 % ID/g. In addition, the figures for the “% ID/g (tumour)” value with melanoma B16F0 tumours (7 d after i.v. injection), with melanoma B16F0 tumours (10 d after i.v. injection) and in the data set with melanoma B16F0 tumours (14 d after i.v. injection) were 2.7 ± 0.8 % ID/g, 1.3 ± 0.4 % ID/g and 0.6 ± 0.3 % ID/g, respectively.
`CCN(CCNC(=O)c1cnc2cc([125I])ccc2n1)CCOCCOCCOCCOCCOCCOCCOCCF` [[^125I]5]: the “% ID/g (tumour)” value worked out at 6.8 ± 1.8 % ID/g in the data set on melanoma B16F0 tumours (1 h after i.v. injection); 7.8 ± 1.5 % ID/g in the data set on melanoma B16F0 tumours (3 h after i.v. injection); 7.2 ± 1.1 % ID/g in the data set on melanoma B16F0 tumours (6 h after i.v. injection); 6.8 ± 1.7 % ID/g in the data set with melanoma B16F0 tumours (24 h after i.v. injection); 3.8 ± 0.7 % ID/g in the data set with melanoma B16F0 tumours (72 h after i.v. injection); 2.7 ± 0.3 % ID/g in the data set with melanoma B16F0 tumours (5 d after i.v. injection). In addition, the “% ID/g (tumour)” value came out at 1.5 ± 0.2 % ID/g with melanoma B16F0 tumours (7 d after i.v. injection), 0.8 ± 0.3 % ID/g in the data set on melanoma B16F0 tumours (10 d after i.v. injection) and 0.3 ± 0.01 % ID/g in the data set on melanoma B16F0 tumours (14 d after i.v. injection).
`CCN(CCNC(=O)c1cnc2cc([125I])ccc2n1)Cc1cn(CCF)nn1` [[^125I]7]: the “% ID/g (tumour)” value with melanoma B16F0 tumours (1 h after i.v. injection) stood at 13.0 ± 1.5 % ID/g; in the data set on melanoma B16F0 tumours (3 h after i.v. injection) it was 14.5 ± 0.1 % ID/g; with melanoma B16F0 tumours (6 h after i.v. injection), 15.9 ± 1.7 % ID/g; in the data set on melanoma B16F0 tumours (24 h after i.v. injection), 15.6 ± 3.4 % ID/g; with melanoma B16F0 tumours (72 h after i.v. injection) it was 11.0 ± 0.7 % ID/g; in the data set with melanoma B16F0 tumours (5 d after i.v. injection), 8.6 ± 0.4 % ID/g. Also, the “% ID/g (tumour)” value is listed as 5.3 ± 0.8 % ID/g with melanoma B16F0 tumours (7 d after i.v. injection), 3.7 ± 0.3 % ID/g in the data set on melanoma B16F0 tumours (10 d after i.v. injection) and 1.8 ± 0.4 % ID/g in the data set on melanoma B16F0 tumours (14 d after i.v. injection).
